Patent US10758609B2, “Cross-reactive T-cell epitopes of HIV, SIV, and FIV for vaccines in humans and cats” (priority 2015, dated 2020)
Residues, ends and D or L forms follow the SMILES beside them.

Assays:
[1] = tested on: CD3^+CD4^+ T cells from HIV^+ subjects; experiment: CFSE-based CD3+CD4+ T-cell proliferation, HIV+ human subjects
Experimental: (§1) The overlapping peptide pools of FIV and HIV-1 structural and enzyme proteins were used to stimulate the […] (PBMC) and the T cells from HIV^+ subjects as previously described for epitope mapping of HIV-1 and FIV p24 and reverse transcriptase (RT) (Sanou et al., 2013; Roff et al., 2015). The individual peptides in those peptide pools with positive responses to either interferon-γ (IFNγ) production and/or T-cell proliferation were determined with IFNγ ELISpot analysis and CFSE-based CD3^+CD4^+ and CD3^+CD8^+ T-cell proliferation analyses followed by the FACS-based intracellular staining (ICS) for cytolysin (perforin) and cytotoxin (granzyme A [GrzA] and GrzB) (Sanou et al., 2013; Roff et al., 2015). Besides viral p24 and RT proteins, the identical approach was used to identify anti-HIV/FIV T-cell epitopes on viral matrix (MA), nucleocapsid (NC), protease (PR), RNAase, integrase (IN), surface envelope (SU Env), and transmembrane envelope (TM Env) (FIG. 12).
(§2) Since our goal is to develop HIV vaccine for human use, the HIV peptides (Table 10) counterpart of the cross-reactive FIV peptides shown in Table 9 were tested with PBMC and T cells from HIV^+ subjects. The immune functions analyzed were human IFNγ production by ELISpot, cytolysin/cytotoxin production by ICS, and CFSE-based proliferation of CD3^+CD4^+ and CD3^+CD8^+ T cells from HIV^+ subjects (Table 10, the first set of results). In addition, the Los Alamos National Laboratories (LANL) database was used to identify the HLA allele(s) of the HIV epitope sequence with CTL activity that can exist within the sequence of the conserved counterpart HIV peptide (Table 9, LANL CTL). The bold HLA class-I supertypes and the bold 2-digit alleles are those on the “Optimal CD8^+ CTL Epitopes” list and those without bold are alleles for potential CTL epitope. […] The HLA class II such as HLA-DRB1 has yet to be fully classified into supertypes, and therefore the 4-digit resolution nomenclatures for the HLA-DRB1 alleles are shown.
(§3) The threshold for positive IFNγ and IL2 ELISpot responses is ≥50 spot-forming units (SFU) per 10^6 PBMC. The threshold for CFSE-based CD4^+ and CD8^+ T-cell proliferation is ≥2% CD4^+ T-cell CFSE^low or CD8^+ T-cell CFSE^low. The threshold of FACS-based intracellular cytokine staining (ICS) is ≥0.2%. […] The nine FIV peptides in black were used in the current MAP vaccine trial, whereas the 13 peptides in blue were not used. […] The MAPs and their corresponding peptide(s) were also tested for their ability to enhance or suppress in vitro FIV infection of feline PBMC (E/S of peptides and E/S of MAP).
(§4) The counterpart HIV-1 peptides of the FIV peptides were also tested for immunogenicity using PBMC and T cells from HIV^+ human subjects. […] The HRT7-1 and HRT7-2 were also tested with cells from HIV^+ subjects on ART. The threshold for positive IFNγ ELISpot response is ≥75 spot-forming units (SFU) per 10^6 PBMC. The threshold for CFSE-based CD4^+ (CD4^+ T) and CD8^+ (CD8^+ T) T-cell proliferation is ≥2% CD4^+ T-cell CFSE^low or CD8^+ T-cell CFSE^low. The threshold of intracellular cytokine staining (ICS) of FACS-based cytolysin (perforin) and cytotoxins (granzymes A and B) in CD4^+ T cells (CyCD4) and CD8^+ T cells (CyCD8) is ≥0.2%. […] The nine HIV-1 peptides in black are the counterpart FIV peptides used in the current MAP vaccine trial, whereas the 13 peptides in blue were not.

[2] = tested on: CD8^+ T cells from HIV^+ subjects; experiment: FACS-based intracellular staining (ICS) for cytolysin (perforin) and cytotoxins (GrzA, GrzB) in CD8+ T cells; details: HIV+ human subjects; for CyCD8: CD8+ T-cell cytolysin/cytotoxins (perforin, GrzA & B), frequency of responders: HIV-1 epitope peptide, threshold ≥0.2%
Experimental: as §1, §2, §3, §4

PBMC from HIV^+ subjects = experiment: IFNγ ELISpot of PBMC from HIV+ human subjects; assay type: cell-based
Experimental: as §1, §2
In addition, these peptides were also analyzed for IFNγ production, CD4^+ and CD8^+ T-cell proliferation, and cytolysin (perforin) and cytotoxin (granzyme A (GrzA) and GrzB)) mRNA production of PBMC or T cells from 8-30 HIV^+ human subjects. The frequency of responders is based on the individual responses of the vaccinated cats or HIV^+ human subjects after subtraction of the average of the responses of PBMC or T cells from 6-8 non-vaccinated cats or 8-20 HIV-negative human subjects.
as §3
The counterpart HIV-1 peptides of the FIV peptides were also tested for immunogenicity using PBMC and T cells from HIV^+ human subjects. […] The HRT7-1 and HRT7-2 were also tested with cells from HIV^+ subjects on ART. The threshold for positive IFNγ ELISpot response is ≥75 spot-forming units (SFU) per 10^6 PBMC. The threshold for CFSE-based CD4^+ (CD4^+ T) and CD8^+ (CD8^+ T) T-cell proliferation is ≥2% CD4^+ T-cell CFSE^low or CD8^+ T-cell CFSE^low. The threshold of intracellular cytokine staining (ICS) of FACS-based cytolysin (perforin) and cytotoxins (granzymes A and B) in CD4^+ T cells (CyCD4) and CD8^+ T cells (CyCD8) is ≥0.2%.

[3] = tested on: CD3^+CD8^+ T cells from HIV^+ subjects; experiment: CFSE-based CD3+CD8+ T-cell proliferation, HIV+ human subjects
Experimental: as §1, §2, §3, §4

[4] = tested on: CD4^+ T cells from HIV^+ subjects; details: HIV+ human subjects; for CyCD4: CD4+ T-cell cytolysin/cytotoxins (perforin, GrzA & B), frequency of responders: HIV-1 epitope peptide, threshold ≥0.2%; for CyCD4 (cytolysin and cytotoxin production of CD4+ T cells), frequency of responders: HIV-1 peptides
Experimental: as §1, §2, §4

[5] = HIV-1 epitope peptide, threshold ≥2% CFSElow

Compound	CD4+ T proliferation, frequency of responders [1, 5]	CDC4^+ T (T-cell proliferation), frequency of responders ([1]; HIV-1 peptides)	CyCD8: CD8+ T-cell cytolysin/cytotoxins (perforin, GrzA & B), frequency of responders [2]	CyCD7, frequency of responders ([2]; HIV-1 peptides)	IFNγ, frequency of responders (PBMC from HIV^+ subjects; HIV-1 epitope peptide, threshold ≥75 SFU per 10^6 PBMC)	IFNγ, frequency of responders (PBMC from HIV^+ subjects; HIV-1 peptides)	CD8+ T proliferation, frequency of responders [3, 5]	CD8^+ T (T-cell proliferation), frequency of responders ([3]; HIV-1 peptides)	CyCD4: CD4+ T-cell cytolysin/cytotoxins (perforin, GrzA & B), frequency of responders [4]	CyCD4 (cytolysin and cytotoxin production of CD4+ T cells), frequency of responders [4]
KKDSTKWRKLVDFRE [HRT3-3]	++ (25.1%-40% (++))	++ (25.1%-40% (++))	++++ (>54% (++++))	++++ (>54% (++++))	+ (12.5%-25% (+))	+ (12.5%-25% (+))	+++ (40.1%-54% (+++))	+++ (40.1%-54% (+++))	++++ (>54% (++++))	++++ (>54% (++++))
CC[C@H](C)[C@H](NC(=O)[C@H](CC(=O)O)NC(=O)[C@@H](NC(=O)[C@H](C)NC(=O)[C@@H](NC(=O)[C@@H](NC(=O)[C@H](CC(=O)O)NC(=O)[C@@H](NC(=O)[C@@H](NC(=O)[C@H](CCCNC(=N)N)NC(=O)[C@H](CCC(=O)O)NC(=O)CN)[C@@H](C)CC)C(C)C)[C@@H](C)CC)[C@@H](C)CC)[C@@H](C)O)C(=O)N[C@@H](CCC(N)=O)C(=O)N[C@H](C(=O)N[C@@H](CCCCN)C(=O)O)[C@@H](C)O [HIN7-1] (H-GERIVDIIATDIQTK-OH; N-terminus and C-terminus assumed)	–	–	+ (12.5%-25% (+))	–	–	–	–	–	− (0%-1.4% (−))	— (0%-1.4%(—))
